Laboratory results as given in a melting point compilation (Tetko et al.; mined from patent text by program, amines drawn as free bases though some values may be those of a salt).

Compound | melting point [°C]
O=CNc1csc(Br)n1 | 167
CSC(=NCc1cccc2ccccc12)NCC1CCN(S(=O)(=O)c2cccc3ccccc23)CC1 | 111 to 113
N#Cc1cnc(Nc2ccc(CCO)cc2)nc1-c1ccccc1 | 142 to 143
Oc1ccccc1-c1cnc2cnc(-c3ccccc3O)nc2c1 | 239 to 240
COCCOc1cc(NC(=O)OC(C)(C)C)c(NC(=O)CC(=O)c2cccc(-n3ccnc3)c2)cc1-c1ccc(F)cc1 | 61 to 63
O=c1c2cc(Br)ccc2nc(C(S)c2ncnc3[nH]cnc23)n1-c1ccccc1Cl (centres undefined) | 212 to 242
c1csc(C2=NOCCS2)c1 | 86 to 89
CNCc1nnc2n1-c1ccc(Cl)cc1C(c1ccccc1)=NC2 | 152 to 156
CCOC(=O)C=Cc1cc(C=CS(=O)(=O)c2ccccc2)cc(Cc2cccnc2)c1 | 118 to 120
O=C(NC/C=C\COc1cc(CN2CCCCC2)ccn1)NC1CCC1 | 130 to 132
Cn1c(C(=O)OCc2ccccc2)c(-c2ccc(F)cc2)c2cccnc2c1=O | 217 to 218
CC(C)(C)OC(=O)N1CC2CN(C(N)=S)CC2C1 (centres undefined) | 188 to 190
COc1cccc(CN(C)CC(CCN2CCC(NC(C)=O)(c3ccccc3)CC2)c2ccc(Cl)c(Cl)c2)c1 (centres undefined) | 59 to 61
c1ccc2c(c1)NC(CN1CCOCC1)CO2 (centres undefined) | 117 to 121
O=C(Nc1cccc(-c2cc(-c3c(Cl)cccc3Cl)no2)c1)C(Cl)Cl | 167
CCOC(=O)N1CC[C@H](Oc2cccc(F)c2)[C@H](c2ccccc2)C1 (relative stereo) | 74 to 76.5
C=C(C)C(=O)OC1CC(=O)NC1=O (centres undefined) | 102
O=[N+]([O-])c1ccc(Oc2ccccc2Oc2ccc([N+](=O)[O-])c(O)c2)cc1O | 178 to 180
CCOC(=O)C1CCCC1NC(=O)C=C(C)OC (centres undefined) | 74

Compound | melting point [°C]
O=c1c2cn(Cc3ccccc3F)c3ccccc3c-2nn1-c1ccc(Cl)cc1 | 338 to 339
CP(=O)(O)CC(F)CN (centres undefined) | 78 to 84
CC1(C)C(=O)N(CCCl)C(=O)N1CCCl | 77 to 79
Fc1cc(F)c(N=C2NCCN2)c(F)c1 | 148 to 150
O=[N+]([O-])c1cccc2c(NCC34CCCN3CCC4)cccc12 | 95 to 97
CNC(=O)c1cccc(F)c1Nc1nc(Nc2ccc3c(c2)CCN(CCOC)CC3)ncc1Br | 99 to 105
CC(=O)C1C(=O)CC(C#N)CC1=O (centres undefined) | 66 to 69
CCCOC(Cc1ccc(OCCc2nc(C(C)(C)C)oc2C)c2ccccc12)C(=O)O (centres undefined) | 135 to 137
CC(=O)OCCN1CCC(CNC(=O)[C@@H]2CCCN2S(=O)(=O)c2ccc(Cl)c(COc3cccc4c(-n5ccnc5)cc(C)nc34)c2Cl)CC1 | 93
O=C(NNC(=O)c1occ(-c2ccccc2)c1-c1ccccc1)c1ccc(O)c(F)c1 | 243 to 245
COc1cc(OCc2ccccn2)ccc1/C=C/c1cc(/C=C/c2ccc3[nH]ccc3c2)n[nH]1 | 98 to 104
CC(C)C[C@H](NS(=O)(=O)c1cccnc1)C(=O)N[C@@H](C(C)C)[C@@H](O)c1c(-c2ccccc2)c1=O | 110 to 112
CCOC(=O)C1C=CC(c2ccccc2)n2c(=O)n(CCl)c(=O)n21 (centres undefined) | 145 to 146
Oc1cccc2c(Cl)ccnc12 | 143 to 145
C1COCCOCCNCCOCCOCCOCCN1 | 0
OC1CSC(Oc2cncc(C(F)(F)F)c2)C(O)C1O (centres undefined) | 160 to 161
CCOC(=O)c1c(CCCCn2cncn2)nc2sc3c(c2c1-c1ccc(OC)c(OC)c1)CCN(C(=O)c1ccc(Cl)cc1)C3 | 165 to 166
O=C1N(Cc2ccccc2OC(F)(F)F)c2ccccc2C12COc1cc3c(cc12)OCO3 (centres undefined) | 88 to 91
N[C@@H](Cc1ccccc1)C(c1ccccc1)c1ccccc1 | 71 to 72

Compound | melting point [°C]
N#Cc1ccc(CNC(=O)Cc2ccc(O)cc2)cc1 | 176 to 178
OCc1cc(N2CCCCC2)c(Br)cn1 | 118 to 119
OC(c1ccccc1)(c1ccccc1)C1CCN(Cc2ccccc2)CC1 | 89.5 to 90.5
CCCCCCCCCCCCn1nnnc1CCC(=O)Nc1c(OC)cc(OC)cc1OC | 57 to 61
c1ccc(-c2nnc3cc(-c4ccsc4)c(OCc4ncn[nH]4)nn23)cc1 | 264 to 266
O=C(CBr)Nc1c(Cl)cccc1C(=O)O | 173 to 175
CCCCCCCNC(=O)Nc1ccc(N2CCCC2)cc1C(=O)NCC1CCN(C(c2ccccc2)c2ccccc2)CC1 | 182 to 184
Fc1ccc(-c2ncn(C3CCNCC3)c2-c2ccnc(Oc3ccccc3)n2)cc1 | 182 to 183
Nc1cc(Sc2ccc3c(C(=O)Nc4cccc(OC(F)(F)F)c4)cccc3c2)ncn1 | 197 to 199
NC(C(=O)O)C(O)CC(=O)O (centres undefined) | 137 to 138
O=C(Nc1ccc(OC(F)(F)F)cc1)N[C@H]1CC[C@H](O)CC1 | 224 to 225
O=C(O)C(=Cc1ccc(OCc2ccccc2)cc1OCc1ccccc1)Cc1ccccc1 | 175 to 176
N#Cc1cc(C(=O)NNC(=O)c2occc2-c2ccc(OCc3ccccc3)cc2)ccc1O | 208 to 209
COC(=O)C#CCOC(N)=O | 113 to 114
C[C@H](NC(=O)COCCNC(=O)c1ccc(Cl)cc1)C(=O)N[C@H](CCC(=O)OCc1ccccc1)C(N)=O | 141 to 143
CC(C)(OCc1nn(C(c2ccccc2)(c2ccccc2)c2ccccc2)c2ccccc12)C(=O)O | 179 to 180
CC(=O)N1CCC(Oc2c(F)c(F)c(F)c(F)c2F)CC1 | 60 to 65
CC(NC(=O)c1cccnc1)c1ccccc1 (centres undefined) | 88 to 89

Now from value to compound:

melting point [°C] | Compound
112 | COc1ccc(CCc2ccc(C(=O)O)cc2)cc1OC(C)CCCc1ccccc1 (centres undefined)
220 to 224 | Cc1cc2c(cc1C)CC(=O)NC=C2
93 to 96 | COC(=O)c1ccc([N+](=O)[O-])cc1S(=O)(=O)N(C)C
149 to 151 | CCSc1nc2c(C)sc(C(=O)OC)c2n1Cc1ccc(-c2ccccc2C#N)cc1
150 | Cc1c(Cl)ccc(OC(C)C(=O)O)c1Cl (centres undefined)
151 to 153 | CCOC(=O)c1cnn(C)c1NC(=O)Nc1ccccc1
85 to 89 | CCOC(=O)c1cncc(OC)c1CCCO
193 to 195 | CCNc1cccc2c1C(=O)c1cccc(NCC)c1C2=O
276 to 278 | CC(=O)Nc1cccc(C#CC=Cc2cccc(NC(C)=O)c2)c1
235 to 237 | NC(=O)c1[nH]c2cccnc2c1Sc1cccc(F)c1
207 to 209 | Cc1cc(C)c(C)c(COc2cccc(-c3c(-c4ccccc4)coc3C(=O)NNC(=O)c3ccc(O)c(C#N)c3)c2)c1C
230 to 241 | CN(C)c1nccc(-c2cccnc2)n1
194 to 197 | O=C(c1ccccc1)c1cc2cc(Cl)ncc2[nH]1
184 to 185 | COc1cc(C(=O)NS(=O)(=O)c2ccccc2C)ccc1Cn1ncc2ccc(NC(=O)CC3CCCC3)cc21
146 to 147 | CCC1Cc2cc(OC)c(Cl)c(Cl)c2C1=O (centres undefined)
144 to 146 | CON(c1ccc([N+](=O)[O-])cc1C#N)S(=O)(=O)c1ccc(Cl)s1
210 to 212 | CSc1c(CC(=O)O)ccc2c1[nH]c1ccccc12
124 | CCOC(=O)C1=C(C)NN=C(CC)C1c1ccccc1C(F)(F)F (centres undefined)
82 to 105 | COc1cc2c(cc1Nc1ncc(Cl)c(Nc3ccc(N4CCOCC4)cc3OC)n1)CCN(CC(=O)N1CCCC1)CC2
> 240 | CC(C)c1ccc2c(=O)cc(C(=O)O)[nH]c2c1
202 to 203 | Cc1cc2c(cc1Cl)N(C(=O)Nc1ccc(C)c(-c3cccnc3)c1)CC2
153 to 155 | CNc1nc(CC(=O)Nc2cccc(C(F)(F)F)c2)cs1

melting point [°C] | Compound
283 | O=C1Nc2ccc(I)cc2C1=NNC(=O)c1cccc(Oc2ccccc2)c1
116 to 118 | COC(=O)c1cc(C(=O)OC)c2c(Cl)cc(Cl)cc2n1
> 250 | CCc1ccc(Nc2nc3cc(NC(=O)c4ccc(OC)c(OC)c4)ccc3o2)cc1
201 to 204 | Cc1[nH]c2ccc(S(=O)(=O)c3cc(F)cc(F)c3)cc2c1CCNC(=O)OC(C)(C)C
66.3 | CS(=O)(=O)Nc1cccc(C=C2c3ccccc3CCc3ccccc32)c1
150 to 151 | C[C@@H]1NC(=O)[C@H]2Cc3c([nH]c4ccccc34)[C@@H](c3ccc4occc4c3)N2C1=O
153 to 155 | Cc1nc(-c2ccccc2)nc(-c2cccc([N+](=O)[O-])c2)c1C(=O)N1CCN(C)CC1
145 to 146 | Cc1c(NC(=O)NCCCO)c(C)c2c(c1-c1ccccc1)OCC2c1ccc(C(C)C)cc1 (centres undefined)
205 to 207 | CCC(CC)c1ccc(Cl)c2nc3n(c12)CCN3C(=O)c1ccc(Cl)nc1
245 to 248 | Cc1nc2c(c(=O)[nH]1)-c1ccc(Cl)cc1C(c1ccccc1)=NC2
253 to 255 | COCCOc1cc(Cc2cnc(N)nc2N)cc2cccnc12
64 to 65 | CN1CCC(=O)C(c2cccc(C(F)(F)F)c2)C1 (centres undefined)
242 to 244 | CC(=Cc1ccc(C(=O)O)cc1)c1ccc2c(c1)OCCC2(C)C
243 to 248 | CCNC(=O)Nc1nc2cc(-c3cnc(OC)nc3)ccn2n1
150 to 151 | COC(=O)/C(=C/C=C/c1cc2cc(OC)ccc2[nH]1)OC
177 to 181 | Cc1ncc2cc(-c3c(Cl)cccc3Cl)c(NC(=O)N(C)C)nc2n1
84 to 86 | CCN(CC)C(=O)n1cc(Cl)c(S(=O)(=O)c2c(C)cc(C)cc2C)n1
196 to 198 | COc1cc(-c2nc(-c3ccc(N(C)C)cc3)c(C)[nH]2)cc(OC)c1OP(=O)(O)O
136 to 137 | O=C(Nc1ccc(Cl)c(C(F)(F)F)c1)C1C(=O)C2CCC(C2)C1=O (centres undefined)
161 to 183 | CCc1ccccc1C=CC=C1SC(=S)N(CC(=O)O)C1=O
189 to 193 | Cc1ccc(-c2ccc3c(c2)C=C(C(=O)Nc2ccc(CNC(CO)CO)cc2)CC3)cc1
